Like-named read-outs stand apart in the source and are kept apart here.
Tests used:
RSV = RSV infection (viral titers) in 1-MT or vitamin K3 treated human MSCs; format: cell-based, respiratory syncytial virus; details: human MSCs treated with 1-MT or vitamin K3
PBMCs = format: cell-based, human
IDO = IDO (Homo sapiens, UniProt P14902); format: cell-based; details: RSV-infected MSCs treated with 1 mM 1-MT or 10 μM vitamin K3
hMSCs = assay: Boyden chamber invasion assay, hMSC migration towards LLC1 cells; details: media containing 1MT, 24 hours coculture
Experimental: Migrated MSCs were counted after 24 h.
To test the effect of 1-MT on the migratory capacity of hMSCs the inventors used a Boyden chamber invasion assay with Lewis lung carcinoma (LLC1) cells in the bottom chamber to produce trophic factors. MSCs were seeded on the top of a matrigel layer above a PET membrane with 8.0 μm pores (BD Bioscience) and treated with control MSC media or media containing 1MT. Cells were cocultured for 24 hours before fixation in 4% paraformaldehyde in PBS. Upper matrigel layer was removed by cue tip and migrant cells were visualized and counted by Giemsa staining.

IDO, sequence (P14902 whole entry): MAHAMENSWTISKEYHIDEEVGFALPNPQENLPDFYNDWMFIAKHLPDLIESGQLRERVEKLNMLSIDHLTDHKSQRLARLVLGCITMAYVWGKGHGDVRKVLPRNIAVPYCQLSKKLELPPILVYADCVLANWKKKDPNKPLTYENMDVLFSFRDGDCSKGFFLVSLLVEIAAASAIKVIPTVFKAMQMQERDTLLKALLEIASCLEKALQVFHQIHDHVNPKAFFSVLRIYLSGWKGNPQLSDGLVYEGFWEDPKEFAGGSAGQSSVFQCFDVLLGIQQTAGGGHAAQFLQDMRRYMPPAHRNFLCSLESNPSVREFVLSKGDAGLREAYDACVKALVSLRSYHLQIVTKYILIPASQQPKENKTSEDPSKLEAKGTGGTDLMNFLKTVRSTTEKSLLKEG

Structure (SMILES)	RSV infection as determined by viral titers (RSV)	effect on inhibition of PBMC proliferation by RSV-infected MSC conditioned medium (CFSE dye dilution) (PBMCs; 1 mM 1-MT or 10 μM vitamin K3, PHA, 5 days, flow cytometry)	kynurenine levels (IDO)	effect on inhibition of PBMC proliferation by RSV-infected MSC conditioned medium (CFSE dye dilution) (PBMCs)	migration of hMSC towards LLC1 cells (hMSCs)
CC1=CC(=O)c2ccccc2C1=O [vitamin K3]	did not reduce RSV infection	abolished the negative effect on PBMC proliferation	reduced kynurenine levels		
Cn1cc(C[C@H](N)C(=O)O)c2ccccc21 [1-MT, 1-methyltryptophan]	did not reduce RSV infection			abolished the negative effect on PBMC proliferation	did not inhibit migration

— patent US11607426B2, “Method of targeting oncolytic viruses to tumors” (UNIVERSITY OF SOUTH FLORIDA, priority 2016, dated 2023)
